Laboratory results: patent US20100256357A1, “HETEROCYCLES USEFUL AS INHIBITORS OF CARBONIC ANHYDRASE” (Agouron Pharmaceuticals, Inc., priority 2006, published 2010)
Like-named read-outs stand apart in the source and are kept apart here.

What was measured:
human CA-II [1] = molecular target: T1, human CA-II (Homo sapiens, UniProt P00918); assay: Carbonic Anhydrase-II (CA-II) Fluorimetric Assay-IC50 Determination; format: biochemical; conditions: for IC50: Kd ND, read-out: CA-II IC50
T1 construct: purchased Sigma-Aldrich C6165
Method in brief: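 Compounds were tested as an 11-point, 1:3 dilution series in duplicate, with a top final concentration of 1 μM, in 50 mM Tris/HCl pH 7.6, 100 mM Na2SO4 and 0.005% Tween-20. Human CA-II activity was followed as the rate of fluorescein diacetate hydrolysis at 25° C, with excitation at 488 nm and emission at 538 nm.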

human CA-IV = molecular target: T2, human CA-IV (Homo sapiens, UniProt P22748); assay: Carbonic Anhydrase-IV (CA-IV) Fluorescence Polarization Assay-IC50 Determination; format: binding; conditions: for inhibition at 0.2 µM: CA-IV Min dose 200 nM, read-out: CA-IV: % Inh @ Min dose
T2 construct: made in house; host or cells: Escherichia coli BL21(DE3)
Method: Carbonic Anhydrase-IV (CA-IV) Fluorescence Polarization Assay-IC50 Determination
These cells were grown in Luria broth (LB) media (Biomyx) supplemented with 800 uM ZnCl2 at 37° C. until an O.D.600 of 0.7, at which point the cells were induced with 100 uM isopropyl-beta-D-thiogalactopyranoside (IPTG) for 20 hours at 20° C. The frozen pellet was resuspended in 50mM 2-morpholinoethanesulfonic acid (MES) at pH 6.0, 100 mM NaCl, 800 uM ZnCl2 and EDTA-Free protease inhibitors (Roche). The cells were lysed with a microfluidizer, the lysate was spun at 40,000 rpm for 45 minutes at 4° C., and the soluble fraction was dialyzed overnight at 4° C. in 50 mM MES pH 6.0, and 100 mM NaCl. The soluble fraction was then put over a 100 ml SP-Sepharose High Performance (GE Healthcare) column and eluted with a 50 mM MES pH 6.0, 750 mM NaCl gradient. The peak fractions were then concentrated, via an Amicon Ultra-4 10,000 MWCO (Millipore) spin column to 2.0 mL and loaded onto a Sephacryl S-100 High Resolution (GE Healthcare) column in 25 mM tris(hydroxymethyl)aminomethane hydrochloride (Tris-HCl) pH 7.0, and 100 mM NaCl. The peak fractions were then concentrated, via an Amicon Ultra-4 10,000 MWCO (Millipore) spin column, to 7.0 mg/mL and left exposed at room temperature overnight. […] T.; et al. Carbonic Anhydrase Inhibitors. Med. Res. Rev. […]
Assays were conducted in a final volume of 100 μL in 50 mM Tris/HCl (pH 7.6), 100 mM Na2SO4 and 0.005% Tween-20 in a 96-well black assay plate.

human CA-II [2] = molecular target: T1, human CA-II; assay: Carbonic Anhydrase-II (CA-II) Fluorescence Polarization Tight Binding Assay-Kd Determination; conditions: inhibitor concentration 2.5 nM
Method: Assays were conducted in a final volume of 100 μL in 50 mM Tris/HCl (pH 7.6), 100 mM Na2SO4 and 0.005% Tween-20 in a 96-well black assay plate. […] The assay plate was
The Kd binding was calculated using GraphPad Prism and Morrison tight binding ligand equation.

[3] = CA II Min dose 100 nM, read-out: CAII % Inh @ Min dose

T2 sequence (P22748 19-284 limits assumed): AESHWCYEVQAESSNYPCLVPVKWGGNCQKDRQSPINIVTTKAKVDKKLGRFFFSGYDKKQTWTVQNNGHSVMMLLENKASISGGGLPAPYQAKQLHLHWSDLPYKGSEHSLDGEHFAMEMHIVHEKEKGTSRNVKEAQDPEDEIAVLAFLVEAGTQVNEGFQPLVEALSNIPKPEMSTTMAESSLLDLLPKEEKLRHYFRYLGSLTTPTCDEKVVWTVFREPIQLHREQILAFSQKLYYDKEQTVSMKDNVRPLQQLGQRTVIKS

inhibition at 0.1 µM (human CA-II [1]; [3]) [%]	IC50 (human CA-II [1]) [nM]	inhibition at 0.2 µM (human CA-IV) [%]	IC50 (human CA-IV; read-out: CA-IV IC50) [nM]	inhibition at 0.1 µM (human CA-II [1]; read-out: CA-II % at 100 nM) [%]	inhibition at 0.0025 µM (human CA-II [2]) [%]	IC50 (human CA-IV; read-out: IC50_CAIV) [nM]	Compound
100	3.4	74.3	115	–	–	–	NS(=O)(=O)c1ccc(-n2nc(C(=O)N3CCc4ccccc4CC3)nc2Cc2ccccc2)cc1 [Example R-4, 4-[5-benzyl-3-(1245-tetrahydro-3H-3-benzoazepin-3-ylcarbonyl)-1H-124-triazol-1-yl]benzenesulfonamide]
99	–	56.9	194	99	–	–	NS(=O)(=O)c1ccc(-n2nc(C(=O)N3CC4CCC3C4)nc2Cc2ccccc2)cc1 (stereo not drawn) [Example R-8, 4-[3-(2-azabicyclo[2.2.1]hept-2-ylcarbonyl)-5-benzyl-1H-124-triazol-1-yl]benzenesulfonamide]
96	–	56.9	274	98	–	–	CC(=O)N1CCCN(C(=O)c2nc(Cc3ccccc3)n(-c3ccc(S(N)(=O)=O)cc3)n2)CC1 [Example R-18, 4-(3-[(4-acetyl-14-diazepan-1-yl)carbonyl]-5-benzyl-1H-124-triazol-1-yl)benzenesulfonamide]
99	3.73	48.6	360	–	–	–	NS(=O)(=O)c1ccc(-n2nc(C(=O)N3CCCCC3)nc2Cc2ccccc2)cc1 [Example R-24, 4-[5-benzyl-3-(piperidin-1-ylcarbonyl)-1H-124-triazol-1-yl]benzenesulfonamide]
101	2.51	69.3	385	–	–	–	CN(C(=O)c1nc(Cc2ccccc2)n(-c2ccc(S(N)(=O)=O)cc2)n1)C1CCCCC1 [Example R-25, 1-[4-(aminosulfonyl)phenyl]-5-benzyl-N-cyclohexyl-N-methyl-1H-124-triazole-3-carboxamide]
–	–	–	–	–	–	314	CN(Cc1cc(Cc2ccccc2)n(-c2ccc(S(N)(=O)=O)cc2)n1)C1CCCCC1 [QQ-1m, 4-(5-benzyl-3-{[cyclohexyl(methyl)amino]methyl}-1H-pyrazol-1-yl)benzenesulfonamide]
–	–	–	–	–	–	455	CCCCN(C)Cc1cc(Cc2ccc(Cl)cc2)n(-c2ccc(S(N)(=O)=O)cc2)n1 [QQ-1n, 4-[3-{[butyl(methyl)amino]methyl}-5-(4-chlorobenzyl)-1H-pyrazol-1-yl]benzenesulfonamide]
–	–	–	–	–	–	308	CN(Cc1cc(Cc2ccc(Cl)cc2)n(-c2ccc(S(N)(=O)=O)cc2)n1)C1CCCCC1 [QQ-1o, 4-[5-(4-chlorobenzyl)-3-{[cyclohexyl(methyl)amino]methyl}-1H-pyrazol-1-yl]benzenesulfonamide]
–	–	–	–	–	–	≥ 5000	Cc1cc(C(=O)O)nn1-c1ccc(S(N)(=O)=O)cc1 [mm-2a, 1-[4-(aminosulfonyl)phenyl]-5-methyl-1H-pyrazole-3-carboxylic acid]
–	–	–	–	–	–	492	NS(=O)(=O)c1ccc(-n2nc(C(=O)O)cc2Cc2ccccc2)cc1 [pp-2a, 1-[4-(aminosulfonyl)phenyl]-5-benzyl-1H-pyrazole-3-carboxylic acid]
–	–	–	–	–	–	459	NS(=O)(=O)c1ccc(-n2nc(C(=O)O)cc2Cc2ccc(Cl)cc2)cc1 [pp-2b, 1-[4-(aminosulfonyl)phenyl]-5-(4-chlorobenzyl]-1H-pyrazole-3-carboxylic acid]
–	–	–	–	–	–	436	NS(=O)(=O)c1ccc(-n2nc(CO)cc2Cc2ccccc2)cc1 [qq-3b, 4-[5-benzyl-3-(hydroxymethyl)-1H-pyrazol-1-yl]benzenesulfonamide]
–	–	–	–	–	–	468	NS(=O)(=O)c1ccc(-n2nc(CO)cc2Cc2ccc(Br)cc2)c(F)c1 [qq-3c, 4-[5-(4-bromobenzyl)-3-(hydroxymethyl)-1H-pyrazol-1-yl]-3-fluorobenzenesulfonamide]
–	–	–	–	–	–	≥ 5000	NS(=O)(=O)c1ccc(-n2nc(CO)c3c2CCCC3)cc1 [qq-3d, 4-[3-(hydroxymethyl)-4,5,6,7-tetrahydro-1H-indazol-1-yl]benzenesulfonamide]

Further lines, the compound ahead of its results:

Compound	inhibition at 0.1 µM (human CA-II [1]; [3]) [%]	IC50 (human CA-II [1]) [nM]	inhibition at 0.2 µM (human CA-IV) [%]	IC50 (human CA-IV; read-out: CA-IV IC50) [nM]	inhibition at 0.1 µM (human CA-II [1]; read-out: CA-II % at 100 nM) [%]	inhibition at 0.0025 µM (human CA-II [2]) [%]	IC50 (human CA-IV; read-out: IC50_CAIV) [nM]
CCCN(CC1CC1)C(=O)c1nc(Cc2ccccc2)n(-c2ccc(S(N)(=O)=O)cc2)n1 [Example R-5, 1-[4-(aminosulfonyl)phenyl]-5-benzyl-N-(cyclopropylmethyl)-N-propyl-1H-124-triazole-3-carboxamide]	100	2.18	66.4	167	–	–	–
NS(=O)(=O)c1ccc(-n2nc(C(=O)N3CCOc4ccccc4C3)nc2Cc2ccccc2)cc1 [Example R-7, 4-[5-benzyl-3-(23-dihydro-14-benzoxazepin-4(5H)-ylcarbonyl)-1H-124-triazol-1-yl]benzenesulfonamide]	101	3.68	59.1	182	–	–	–
CN(CC(O)c1ccccc1)C(=O)c1nc(Cc2ccccc2)n(-c2ccc(S(N)(=O)=O)cc2)n1 (stereo not drawn) [Example R-9, 1-[4-(aminosulfonyl)phenyl]-5-benzyl-N-(2-hydroxy-2-phenylethyl)-N-methyl-1H-124-triazole-3-carboxamide]	99	–	58	198	99	–	–
CN(CCC#N)C(=O)c1nc(Cc2ccccc2)n(-c2ccc(S(N)(=O)=O)cc2)n1 [Example R-10]	99	–	58	202	99	–	–
NS(=O)(=O)c1ccc(-n2nc(C(=O)NCC3(c4ccccc4)CC3)nc2Cc2ccccc2)cc1 [Example R-12, 1-[4-(aminosulfonyl)phenyl]-5-benzyl-N-[(1-phenylcyclopropyl)methyl]-1H-124-triazole-3-carboxamide]	101	–	62.3	206	101	–	–
CCCCN(CC)C(=O)c1nc(Cc2ccccc2)n(-c2ccc(S(N)(=O)=O)cc2)n1 [Example R-14, 1-(4-(aminosulfonyl)phenyl]-5-benzyl-N-butyl-N-ethyl-1H-124-triazole-3-carboxamide]	100	–	59.7	215	100	–	–
NS(=O)(=O)c1ccc(-n2nc(C(=O)N3CC(Oc4ccccc4)C3)nc2Cc2ccccc2)cc1 [Example R-15, 4-(5-benzyl-3-[(3-phenoxyazetidin-1-yl)carbonyl]-1H-124-triazol-1-yl)benzenesulfonamide]	96	–	60.9	220	96	–	–
CCCCCN(CCO)C(=O)c1nc(Cc2ccccc2)n(-c2ccc(S(N)(=O)=O)cc2)n1 [Example R-16, 1-[4-(aminosulfonyl)phenyl]-5-benzyl-N-(2-hydroxyethyl)-N-pentyl-1H-124-triazole-3-carboxamide]	100	–	61.3	220	100	–	–
CCN(CCCCO)C(=O)c1nc(Cc2ccccc2)n(-c2ccc(S(N)(=O)=O)cc2)n1 [Example R-19, 1-[4-(aminosulfonyl)phenyl)-5-benzyl-N-ethyl-N-(4-hydroxybutyl)-1H-124-triazole-3-carboxamide]	99	3.55	50.2	306	–	–	–
CN(CCn1cccn1)Cc1nc(Cc2ccccc2)n(-c2ccc(S(N)(=O)=O)cc2F)n1 [Example T-38, 4-[5-benzyl-3-({methyl[2-(1H-pyrazol-1-yl)ethyl]amino}methyl)-1H-124-triazol-1-yl]-3-fluorobenzenesulfonamide]	–	–	–	–	–	54	–
NS(=O)(=O)c1ccc(-n2nc(CN3CCC[C@@H](O)C3)nc2Cc2ccccc2)c(F)c1 [Example T-39, 4-(5-benzyl-3-{[(3R)-3-hydroxypiperidin-1-yl]methyl}-1H-124-triazol-1-yl)-3-fluorobenzenesulfonamide]	–	–	–	–	–	65	–
CCOC(=O)c1cc(C)n(-c2ccc(S(N)(=O)=O)cn2)n1 [mm-1, ethyl 1-[5-(aminosulfonyl)pyridin-2-yl]-5-methyl-1H-pyrazole-3-carboxylate]	–	–	–	–	–	–	1050
NS(=O)(=O)c1ccc(-n2nc(CO)cc2Cc2ccccc2)c(F)c1 [qq-3, 4-[5-Benzyl-3-(hydroxymethyl)-1H-pyrazol-1-yl]-3-fluorobenzenesulfonamide]	–	–	–	–	–	–	372
